# pIC50: −log10 of the molar value.
# Target: TRPA1 (Homo sapiens, UniProt O75762)
# Test: Determination of TRPA1 activity in vitro (TRPA1 antagonism in vitro)
# Assay type: cell-based
# Details: procedure of Wei et al., Anesthesiology 111 (2009) 147-154
# Sequence of TRPA1 (O75762 whole entry): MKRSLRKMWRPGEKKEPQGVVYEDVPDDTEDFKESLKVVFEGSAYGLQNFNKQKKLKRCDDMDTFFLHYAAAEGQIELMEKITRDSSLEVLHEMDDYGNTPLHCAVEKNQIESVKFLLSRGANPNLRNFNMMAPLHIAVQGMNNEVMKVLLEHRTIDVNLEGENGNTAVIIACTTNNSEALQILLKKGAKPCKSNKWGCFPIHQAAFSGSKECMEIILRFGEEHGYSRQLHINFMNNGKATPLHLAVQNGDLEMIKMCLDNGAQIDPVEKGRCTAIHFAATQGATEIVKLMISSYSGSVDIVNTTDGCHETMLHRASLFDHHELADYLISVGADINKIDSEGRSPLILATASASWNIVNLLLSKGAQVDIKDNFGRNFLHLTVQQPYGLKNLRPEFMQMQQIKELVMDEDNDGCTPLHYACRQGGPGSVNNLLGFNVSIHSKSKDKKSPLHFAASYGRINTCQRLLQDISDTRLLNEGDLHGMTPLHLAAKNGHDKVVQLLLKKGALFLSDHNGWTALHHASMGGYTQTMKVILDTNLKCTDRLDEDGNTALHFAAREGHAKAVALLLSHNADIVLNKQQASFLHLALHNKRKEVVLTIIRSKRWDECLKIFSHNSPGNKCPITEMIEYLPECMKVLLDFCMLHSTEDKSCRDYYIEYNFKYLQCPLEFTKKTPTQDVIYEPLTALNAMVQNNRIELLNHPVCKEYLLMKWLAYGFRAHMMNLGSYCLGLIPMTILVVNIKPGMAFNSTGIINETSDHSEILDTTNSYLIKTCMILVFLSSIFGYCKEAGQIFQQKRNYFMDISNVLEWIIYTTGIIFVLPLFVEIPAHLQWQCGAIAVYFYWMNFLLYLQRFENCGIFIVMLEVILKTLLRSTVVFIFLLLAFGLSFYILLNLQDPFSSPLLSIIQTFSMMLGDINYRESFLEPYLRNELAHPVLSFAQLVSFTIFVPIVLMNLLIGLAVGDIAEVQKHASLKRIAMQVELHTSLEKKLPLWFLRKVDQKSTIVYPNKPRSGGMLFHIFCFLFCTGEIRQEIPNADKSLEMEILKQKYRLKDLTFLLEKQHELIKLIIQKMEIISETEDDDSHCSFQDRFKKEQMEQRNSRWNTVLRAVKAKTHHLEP
row,Compound,pIC50
1,"C#CC(C)(C)NC(=O)c1cc(Cl)cnc1NCCCOCC [Example 146, 5-Chloro-2-(3-ethoxypropylamino)-N-(2-methylbut-3-yn-2-yl)nicotinamide]",5.23
2,"C#CC(C)(C)NC(=O)c1cc(Cl)cnc1NCCOC(C)(C)C [Example 147, 2-(2-tert-Butoxyethylamino)-5-chloro-N-(2-methylbut-3-yn-2-yl)nicotinamide]",5.28
3,"C#CC(C)(C)NC(=O)c1cc(Cl)cnc1NCCOCC [Example 148, 5-Chloro-2-(2-ethoxyethylamino)-N-(2-methylbut-3-yn-2-yl)nicotinamide]",4.83
4,"C#CC(C)(C)NC(=O)c1cc(C(F)F)cnc1NC1CC(F)(F)C1 [Example 152, 2-(3,3-Difluorocyclobutylamino)-5-(difluoromethyl)-N-(2-methylbut-3-yn-2-yl)nicotinamide]",5.62
5,"C#CC(C)(C)NC(=O)c1cc(OCC)ccc1NCCC [Example 154, 5-Ethoxy-N-(2-methylbut-3-yn-2-yl)-2-(propylamino)benzamide]",5.15
6,"C#CC(C)(C)NC(=O)c1cc(Cl)cnc1NC(C)(C)C [Example 155, 2-(tert-Butylamino)-5-chloro-N-(2-methylbut-3-yn-2-yl)nicotinamide]",6.10
7,"C#CC(C)(C)NC(=O)c1cc(F)cnc1NC1CC(F)(F)C1 [Example 156, 2-(3,3-Difluorocyclobutylamino)-5-fluoro-N-(2-methylbut-3-yn-2-yl)nicotinamide]",5.80
8,"C#CC(C)(C)NC(=O)c1cc(F)cnc1NC(C)C(F)(F)F (stereo not drawn) [Example 158, 5-Fluoro-N-(2-methylbut-3-yn-2-yl)-2-(1,1,1-trifluoropropan-2-ylamino)nicotinamide]",5.40
9,"C#CC(C)(C)NC(=O)c1cnccc1Nc1ccc(Cl)cc1 [Example 159, 4-(4-Chlorophenylamino)-N-(2-methylbut-3-yn-2-yl)nicotinamide]",4.94
10,"C#CC(C)(C)NC(=O)c1cc(F)cnc1Nc1ccccc1 [Example 160, 5-Fluoro-N-(2-methylbut-3-yn-2-yl)-2-(phenylamino)nicotinamide]",5.85
11,"C#CC(C)(C)NC(=O)c1cncnc1Nc1ccc(C(F)(F)F)cc1 [Example 161, N-(2-Methylbut-3-yn-2-yl)-4-(4-(trifluoromethyl)phenylamino)-pyrimidine-5-carboxamide]",5.89
12,"C#CC(C)(C)NC(=O)c1cc(F)cnc1NC(C)(C)C [Example 162, 2-(tert-Butylamino)-5-fluoro-N-(2-methylbut-3-yn-2-yl)nicotinamide]",5.43
13,"C#CC(CC)(CC)NC(=O)c1cc(F)cnc1NC1CC(F)(F)C1 [Example 163, 2-(3,3-Difluorocyclobutylamino)-N-(3-ethylpent-1-yn-3-yl)-5-fluoronicotinamide]",7.00
14,"C#CC(C)(CC)NC(=O)c1cc(F)cnc1NC1CC(F)(F)C1 (stereo not drawn) [Example 164, 2-(3,3-Difluorocyclobutylamino)-5-fluoro-N-(3-methylpent-1-yn-3-yl)nicotinamide]",7.00
15,"C#CC(C)(CC)NC(=O)c1cccnc1Nc1cc(F)cc(OC)c1 (stereo not drawn) [Example 166, 2-(3-Fluoro-5-methoxyphenylamino)-N-(3-methylpent-1-yn-3-yl)nicotinamide]",6.22
16,"C#CC(C)(CC)NC(=O)c1cccnc1Nc1cc(Cl)cc(OC)c1 (stereo not drawn) [Example 168, 2-(3-Chloro-5-methoxyphenylamino)-N-(3-methylpent-1-yn-3-yl)nicotinamide]",6.10
17,"C#CC(C)(CC)NC(=O)c1cccnc1Nc1cccc(OC)c1F (stereo not drawn) [Example 170, 2-(2-Fluoro-3-methoxyphenylamino)-N-(3-methylpent-1-yn-3-yl)nicotinamide]",5.31
18,"C#CC(C)(CC)NC(=O)c1cc(F)cnc1Nc1ccc(F)cc1 (stereo not drawn) [Example 171, 5-Fluoro-2-(4-fluorophenylamino)-N-(3-methylpent-1-yn-3-yl)nicotinamide]",6.52
19,"C#CC(C)(CC)NC(=O)c1cc(F)cnc1Nc1ccccc1 (stereo not drawn) [Example 172, 5-Fluoro-N-(3-methylpent-1-yn-3-yl)-2-(phenylamino)nicotinamide]",6.52
20,"C#CC(C)(CC)NC(=O)c1cc(F)cnc1Nc1cccc(F)c1 (stereo not drawn) [Example 176, 5-Fluoro-2-(3-fluorophenylamino)-N-(3-methylpent-1-yn-3-yl)nicotinamide]",6.52
21,"C#CC(C)(CC)NC(=O)c1cc(Cl)cnc1NC1CC(F)(F)C1 (stereo not drawn) [Example 177, 5-Chloro-2-(3,3-difluorocyclobutylamino)-N-(3-methylpent-1-yn-3-yl)nicotinamide]",6.52
22,"C#CC(C)(CC)NC(=O)c1cc(F)cnc1Nc1cccc(C#N)c1 (stereo not drawn) [Example 178, 2-(3-Cyanophenylamino)-5-fluoro-N-(3-methylpent-1-yn-3-yl)nicotinamide]",6.05
23,"C#CC(C)(CC)NC(=O)c1cccnc1Nc1cc(OC)ccc1Cl (stereo not drawn) [Example 189, 2-(2-Chloro-5-methoxyphenylamino)-N-(3-methylpent-1-yn-3-yl)nicotinamide]",5.52
24,"C#CC(C)(CC)NC(=O)c1cccnc1Nc1ccccc1 (stereo not drawn) [Example 190, N-(3-Methylpent-1-yn-3-yl)-2-(phenylamino)nicotinamide]",6.40
25,"C#CC(C)(CC)NC(=O)c1cccnc1NC1CCC(F)(F)CC1 (stereo not drawn) [Example 191, 2-(4,4-Difluorocyclohexylamino)-N-(3-methylpent-1-yn-3-yl)nicotinamide]",6.22

# Further lines, results first:
row,pIC50,Compound
1,6.30,"C#CC(C)(C)NC(=O)c1cccnc1Nc1ccc(C)c(F)c1 [Example 149, 2-(3-Fluoro-4-methylphenylamino)-N-(2-methylbut-3-yn-2-yl)nicotinamide]"
2,5.72,"C#CC(C)(C)NC(=O)c1cccnc1Nc1ccc(OC)c(Cl)c1 [Example 150, 2-(3-Chloro-4-methoxyphenylamino)-N-(2-methylbut-3-yn-2-yl)nicotinamide]"
3,6.30,"C#CC(C)(C)NC(=O)c1cccnc1Nc1cc(F)cc(F)c1 [Example 151, 2-(3,5-Difluorophenylamino)-N-(2-methylbut-3-yn-2-yl)nicotinamide]"
4,6.15,"C#CC(C)(C)NC(=O)c1cc(F)cnc1Nc1ccc(F)cc1 [Example 157, 5-Fluoro-2-(4-fluorophenylamino)-N-(2-methylbut-3-yn-2-yl)nicotinamide]"
5,5.40,"C#CC(C)(C)NC(=O)c1cccnc1Nc1cc(F)cc(OC)c1 [Example 165, 2-(3-Fluoro-5-methoxyphenylamino)-N-(2-methylbut-3-yn-2-yl)nicotinamide]"
6,5.49,"C#CC(C)(C)NC(=O)c1cccnc1Nc1cc(Cl)cc(OC)c1 [Example 167, 2-(3-Chloro-5-methoxyphenylamino)-N-(2-methylbut-3-yn-2-yl)nicotinamide]"
7,4.46,"C#CC(C)(C)NC(=O)c1cccnc1Nc1cccc(OC)c1F [Example 169, 2-(2-Fluoro-3-methoxyphenylamino)-N-(2-methylbut-3-yn-2-yl)nicotinamide]"
8,5.72,"C#CC(C)(C)NC(=O)c1cccnc1Nc1ccc(F)cc1F [Example 173, 2-(2,4-Difluorophenylamino)-N-(2-methylbut-3-yn-2-yl)nicotinamide]"
9,6.40,"C#CC(C)(CC)NC(=O)c1cccnc1Nc1ccc(F)cc1F (stereo not drawn) [Example 174, 2-(2,4-Difluorophenylamino)-N-(3-methylpent-1-yn-3-yl)nicotinamide]"
10,6.05,"C#CC(C)(C)NC(=O)c1cc(F)cnc1Nc1cccc(F)c1 [Example 175, 5-Fluoro-2-(3-fluorophenylamino)-N-(2-methylbut-3-yn-2-yl)nicotinamide]"
11,4.97,"C#CC(C)(C)NC(=O)c1cccnc1Nc1cc(OC)ccc1F [Example 179, 2-(2-Fluoro-5-methoxyphenylamino)-N-(2-methylbut-3-yn-2-yl)nicotinamide]"
12,5.85,"C#CC(C)(CC)NC(=O)c1cccnc1Nc1cc(OC)ccc1F (stereo not drawn) [Example 180, 2-(2-Fluoro-5-methoxyphenylamino)-N-(3-methylpent-1-yn-3-yl)nicotinamide]"
13,5.57,"C#CC(C)(C)NC(=O)c1cccnc1Nc1ccc(F)c(C#N)c1 [Example 181, 2-(3-Cyano-4-fluorophenylamino)-N-(2-methylbut-3-yn-2-yl)nicotinamide]"
14,6.30,"C#CC(C)(CC)NC(=O)c1cccnc1Nc1ccc(F)c(C#N)c1 (stereo not drawn) [Example 182, 2-(3-Cyano-4-fluorophenylamino)-N-(3-methylpent-1-yn-3-yl)nicotinamide]"
15,5.85,"C#CC(C)(C)NC(=O)c1cccnc1Nc1cc(F)cc(C#N)c1 [Example 183, 2-(3-Cyano-5-fluorophenylamino)-N-(2-methylbut-3-yn-2-yl)nicotinamide]"
16,6.70,"C#CC(C)(CC)NC(=O)c1cccnc1Nc1cccc(F)c1 (stereo not drawn) [Example 184, 2-(3-Fluorophenylamino)-N-(3-methylpent-1-yn-3-yl)nicotinamide]"
17,6.30,"C#CC(C)(CC)NC(=O)c1cccnc1Nc1ccccc1F (stereo not drawn) [Example 185, 2-(2-Fluorophenylamino)-N-(3-methylpent-1-yn-3-yl)nicotinamide]"
18,6.70,"C#CC(C)(CC)NC(=O)c1cccnc1Nc1cc(F)cc(F)c1 (stereo not drawn) [Example 186, 2-(3,5-Difluorophenylamino)-N-(3-methylpent-1-yn-3-yl)nicotinamide]"
19,6.40,"C#CC(C)(CC)NC(=O)c1cccnc1Nc1cc(F)cc(C#N)c1 (stereo not drawn) [Example 187, 2-(3-Cyano-5-fluorophenylamino)-N-(3-methylpent-1-yn-3-yl)nicotinamide]"
20,4.78,"C#CC(C)(C)NC(=O)c1cccnc1Nc1cc(OC)ccc1Cl [Example 188, 2-(2-Chloro-5-methoxyphenylamino)-N-(2-methylbut-3-yn-2-yl)nicotinamide]"
21,6.15,"C#CC(C)(CC)NC(=O)c1cccnc1Nc1ccc(OC)c(Cl)c1 (stereo not drawn) [Example 192, 2-(3-Chloro-4-methoxyphenylamino)-N-(3-methylpent-1-yn-3-yl)nicotinamide]"
22,4.95,"C#CC(C)(C)NC(=O)c1cccnc1Nc1ccc(F)c(OC)c1 [Example 193, 2-(4-Fluoro-3-methoxyphenylamino)-N-(2-methylbut-3-yn-2-yl)nicotinamide]"
23,5.80,"C#CC(C)(CC)NC(=O)c1cccnc1Nc1ccc(F)c(OC)c1 (stereo not drawn) [Example 194, 2-(4-Fluoro-3-methoxyphenylamino)-N-(3-methylpent-1-yn-3-yl)nicotinamide]"

# Source: patent US9533952B2, “N-prop-2-ynyl carboxamide derivatives and their use as TRPA1 antagonists” (Orion Corporation, priority 2012, dated 2017)
